The target of assay [1] is hemolysin alpha from Staphylococcus aureus (Staphylococcus aureus, UniProt P09616). The assay is described as follows: cell-based.
The target of assay [2] is S. aureus Alpha hemolysin (Staphylococcus aureus, UniProt P09616). The assay is described as follows: cell-based. Conditions: A549-LDH Assay activity.

What is called EC50 is the concentration at which the effect is half-maximal. The low end stands for higher potency in that assay, the high end for lower potency in that assay.

S. aureus Alpha hemolysin, sequence (P09616 27-319 limits assumed): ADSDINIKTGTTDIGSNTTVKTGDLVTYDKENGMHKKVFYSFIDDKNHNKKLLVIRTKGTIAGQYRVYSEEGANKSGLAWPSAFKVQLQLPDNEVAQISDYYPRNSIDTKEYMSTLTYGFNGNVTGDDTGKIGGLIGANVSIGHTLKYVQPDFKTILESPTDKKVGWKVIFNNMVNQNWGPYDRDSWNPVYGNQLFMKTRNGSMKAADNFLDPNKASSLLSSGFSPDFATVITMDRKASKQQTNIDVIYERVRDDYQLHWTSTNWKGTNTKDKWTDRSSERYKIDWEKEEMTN
hemolysin alpha from Staphylococcus aureus, sequence (P09616 27-319 limits assumed): as above

Take `Cc1cc2[nH]c(=O)c(=O)[nH]c2cc1S(=O)(=O)Nc1ccc(-c2ccc3c(c2)OC(F)(F)O3)c(Cl)c1` [Compound 287, N-[3-chloro-4-(2,2-difluoro-1,3-benzodioxol-5-yl)phenyl]-7-methyl-2,3-dioxo-1,4-dihydroquinoxaline-6-sulfonamide]: the EC50 in assay [1] and in assay [2] was 30 to 100 nM each time.

For `Cc1cc2[nH]c(=O)c(=O)[nH]c2cc1S(=O)(=O)Nc1ccc(-c2ccc(N(C)C)cc2)c(Cl)c1` [Compound 288, N-[3-chloro-4-[4-(dimethylamino)phenyl]phenyl]-7-methyl-2,3-dioxo-1,4-dihydroquinoxaline-6-sulfonamide], the figures for the EC50 in assay [1] and in assay [2] were 100 to 1000 nM and 1000 to 6000 nM, respectively.

On to `COc1ccc(-c2ccc(NS(=O)(=O)c3cc4[nH]c(=O)c(=O)[nH]c4cc3C)cc2Cl)cc1C#N` [Compound 289, N-[3-chloro-4-(3-cyano-4-methoxy-phenyl)phenyl]-7-methyl-2,3-dioxo-1,4-dihydroquinoxaline-6-sulfonamide], for which the values for the EC50 in assay [1] and in assay [2] were 30 to 100 nM and 100 to 1000 nM, respectively.

Take `Cc1cc2[nH]c(=O)c(=O)[nH]c2cc1S(=O)(=O)Nc1ccc(-c2csc(C#N)c2)c(Cl)c1` [Compound 290, N-[3-chloro-4-(5-cyano-3-thienyl)phenyl]-7-methyl-2,3-dioxo-1,4-dihydroquinoxaline-6-sulfonamide]: the concentration for a half-maximal effect (EC50) in assay [1] was under 30 nM; in assay [2], 30 to 100 nM.

Consider `Cc1cc2[nH]c(=O)c(=O)[nH]c2cc1S(=O)(=O)Nc1ccc(-c2ccc(OC(C)C)nc2)c(Cl)c1` [Compound 291, N-[3-chloro-4-(6-isopropoxy-3-pyridyl)phenyl]-7-methyl-2,3-dioxo-1,4-dihydroquinoxaline-6-sulfonamide], for which the EC50 in assay [1] and in assay [2] was 100 to 1000 nM throughout.

Consider `Cc1cc2[nH]c(=O)c(=O)[nH]c2cc1S(=O)(=O)Nc1ccc(-n2ccnc2)cc1` [Compound 292, N-(4-imidazol-1-ylphenyl)-7-methyl-2,3-dioxo-1,4-dihydroquinoxaline-6-sulfonamide], for which the EC50 in assay [1] fell in the range of 1000 to 3500 nM; in assay [2], 1000 to 6000 nM.

`CCO/C=C/c1ccc(NS(=O)(=O)c2cc3[nH]c(=O)c(=O)[nH]c3cc2C)cc1Cl` [Compound 293, N-[3-chloro-4-[(E)-2-ethoxyvinyl]phenyl]-7-methyl-2,3-dioxo-1,4-dihydroquinoxaline-6-sulfonamide]: the EC50 lay in the range of 100 to 1000 nM in assay [1] and 1000 to 6000 nM in assay [2].

In the case of `Cc1cc2[nH]c(=O)c(=O)[nH]c2cc1S(=O)(=O)Nc1ccc(-c2ccc3[nH]c(=O)[nH]c3c2)c(Cl)c1` [Compound 294, N-[3-chloro-4-(2-oxo-1,3-dihydrobenzimidazol-5-yl)phenyl]-7-methyl-2,3-dioxo-1,4-dihydroquinoxaline-6-sulfonamide], the EC50 in assay [1] and in assay [2] was 100 to 1000 nM in each case.

Consider `Cc1cc2[nH]c(=O)c(=O)[nH]c2cc1S(=O)(=O)Nc1ccc(-c2cc(F)ccc2F)c(Cl)c1` [Compound 295, N-[3-chloro-4-(2,5-difluorophenyl)phenyl]-7-methyl-2,3-dioxo-1,4-dihydroquinoxaline-6-sulfonamide], for which the EC50 in assay [1] fell in the range of 30 to 100 nM; in assay [2], 100 to 1000 nM.

For the compound `CC(C)=Cc1ccc(NS(=O)(=O)c2cc3[nH]c(=O)c(=O)[nH]c3cc2C)cc1Cl` [Compound 296, N-[3-chloro-4-(2-methylprop-1-enyl)phenyl]-7-methyl-2,3-dioxo-1,4-dihydroquinoxaline-6-sulfonamide], the concentration for a half-maximal effect (EC50) in assay [1] and in assay [2] was 30 to 100 nM throughout.

Turning to `Cc1cc2[nH]c(=O)c(=O)[nH]c2cc1S(=O)(=O)Nc1ccc(C2=CCOCC2)cc1` [Compound 297, N-[4-(3,6-dihydro-2H-pyran-4-yl)phenyl]-7-methyl-2,3-dioxo-1,4-dihydroquinoxaline-6-sulfonamide], the EC50 in assay [1] and in assay [2] was 100 to 1000 nM in each case.

For `Cc1cc2[nH]c(=O)c(=O)[nH]c2cc1S(=O)(=O)Nc1ccc(-c2ccc(C#N)cc2)c(Br)c1` [Compound 298, N-[3-bromo-4-(4-cyanophenyl)phenyl]-7-methyl-2,3-dioxo-1,4-dihydroquinoxaline-6-sulfonamide], the EC50 is under 30 nM in assay [1] and 30 to 100 nM in assay [2].

Turning to `Cc1cc2[nH]c(=O)c(=O)[nH]c2cc1S(=O)(=O)Nc1ccc(C2=CCCCC2)c(Br)c1` [Compound 299, N-[3-bromo-4-(cyclohexen-1-yl)phenyl]-7-methyl-2,3-dioxo-1,4-dihydroquinoxaline-6-sulfonamide], the EC50 in assay [1] and in assay [2] was 30 to 100 nM throughout.

For the compound `C#Cc1cc(NS(=O)(=O)c2cc3[nH]c(=O)c(=O)[nH]c3cc2C)ccc1-c1ccc(OC)c(F)c1` [Compound 300, N-[3-ethynyl-4-(3-fluoro-4-methoxy-phenyl)phenyl]-7-methyl-2,3-dioxo-1,4-dihydroquinoxaline-6-sulfonamide], the 50% effective concentration (EC50) in assay [1] and in assay [2] was under 30 nM throughout.

Consider `C#Cc1cc(NS(=O)(=O)c2cc3[nH]c(=O)c(=O)[nH]c3cc2C)ccc1-c1ccc2cc[nH]c2c1` [Compound 301, N-[3-ethynyl-4-(1H-indol-6-yl)phenyl]-7-methyl-2,3-dioxo-1,4-dihydroquinoxaline-6-sulfonamide], for which the EC50 in assay [1] and in assay [2] was under 30 nM throughout.

Consider `COc1ccc(-c2ccc(NS(=O)(=O)c3cc4[nH]c(=O)c(=O)[nH]c4cc3C)cc2Br)cc1F` [Compound 302, N-[3-bromo-4-(3-fluoro-4-methoxy-phenyl)phenyl]-7-methyl-2,3-dioxo-1,4-dihydroquinoxaline-6-sulfonamide], for which the EC50 in assay [1] and in assay [2] was under 30 nM each time.

For the compound `COc1ccc(-c2ncc(NS(=O)(=O)c3cc4[nH]c(=O)c(=O)[nH]c4cc3C)cc2Cl)cc1F` [Compound 303, N-[5-chloro-6-(3-fluoro-4-methoxy-phenyl)-3-pyridyl]-7-methyl-2,3-dioxo-1,4-dihydroquinoxaline-6-sulfonamide], the EC50 in assay [1] and in assay [2] was 100 to 1000 nM each time.

For the compound `Cc1cc2[nH]c(=O)c(=O)[nH]c2cc1S(=O)(=O)Nc1ccc(C2CCOCC2)cc1` [Compound 304, 7-methyl-2,3-dioxo-N-(4-tetrahydropyran-4-ylphenyl)-1,4-dihydroquinoxaline-6-sulfonamide], the EC50 in assay [1] was 1000 to 3500 nM; in assay [2] it was 100 to 1000 nM.

For the compound `Cc1cc2[nH]c(=O)c(=O)[nH]c2cc1S(=O)(=O)Nc1cnc(-c2ccc(C#N)cc2)c(Cl)c1` [Compound 305, N-[5-chloro-6-(4-cyanophenyl)-3-pyridyl]-7-methyl-2,3-dioxo-1,4-dihydroquinoxaline-6-sulfonamide], the EC50 in assay [1] was 100 to 1000 nM; in assay [2], 30 to 100 nM.

Regarding `Cc1cc2[nH]c(=O)c(=O)[nH]c2cc1S(=O)(=O)Nc1ccc(C2CCCCC2)c(Br)c1` [Compound 306, N-(3-bromo-4-cyclohexylphenyl)-7-methyl-2,3-dioxo-1,2,3,4-tetrahydroquinoxaline-6-sulfonamide], the values for the EC50 in assay [1] and in assay [2] were 30 to 100 nM and 100 to 1000 nM, respectively.

In the case of `Cc1cc2[nH]c(=O)c(=O)[nH]c2cc1S(=O)(=O)Nc1ccc(-c2ccc(F)c(F)c2F)c(Cl)c1` [Compound 307, N-[3-chloro-4-(2,3,4-trifluorophenyl)phenyl]-7-methyl-2,3-dioxo-1,4-dihydroquinoxaline-6-sulfonamide], the EC50 in assay [1] and in assay [2] was 30 to 100 nM throughout.

With `Cc1cc2[nH]c(=O)c(=O)[nH]c2cc1S(=O)(=O)Nc1ccc(-c2c(F)cccc2F)c(Cl)c1` [Compound 308, N-[3-chloro-4-(2,6-difluorophenyl)phenyl]-7-methyl-2,3-dioxo-1,4-dihydroquinoxaline-6-sulfonamide], the EC50 in assay [1] and in assay [2] was 30 to 100 nM throughout.

On to `Cc1cc2[nH]c(=O)c(=O)[nH]c2cc1S(=O)(=O)Nc1ccc(-c2cc(F)cc(F)c2)c(Cl)c1` [Compound 309, N-[3-chloro-4-(3,5-difluorophenyl)phenyl]-7-methyl-2,3-dioxo-1,4-dihydroquinoxaline-6-sulfonamide], for which the EC50 was under 30 nM in assay [1] and 100 to 1000 nM in assay [2].

As for `Cc1cc2[nH]c(=O)c(=O)[nH]c2cc1S(=O)(=O)Nc1ccc(-c2cccc(Br)c2)c(Cl)c1` [Compound 310, N-[4-(3-bromophenyl)-3-chloro-phenyl]-7-methyl-2,3-dioxo-1,4-dihydroquinoxaline-6-sulfonamide], the EC50 in assay [1] was under 30 nM; in assay [2], 100 to 1000 nM.

Turning to `Cc1cc2[nH]c(=O)c(=O)[nH]c2cc1S(=O)(=O)Nc1ccc(-c2cccc(N)c2)c(Cl)c1` [Compound 311, N-(3′-amino-2-chloro-[1,1′-biphenyl]-4-yl)-7-methyl-2,3-dioxo-1,2,3,4-tetrahydroquinoxaline-6-sulfonamide], the half-maximal effective concentration (EC50) in assay [1] was 30 to 100 nM; in assay [2], under 30 nM.

Take `Cc1cc2[nH]c(=O)c(=O)[nH]c2cc1S(=O)(=O)Nc1ccc(-c2cccc(P(C)(C)=O)c2)c(Cl)c1` [Compound 312, N-[3-chloro-4-(3-dimethylphosphorylphenyl)phenyl]-7-methyl-2,3-dioxo-1,4-dihydroquinoxaline-6-sulfonamide]: the EC50 in assay [1] and in assay [2] was 100 to 1000 nM each time.

Turning to `Cc1cc2[nH]c(=O)c(=O)[nH]c2cc1S(=O)(=O)Nc1ccc(-c2cccc(S(C)(=O)=O)c2)c(Cl)c1` [Compound 313, N-[3-chloro-4-(3-methylsulfonylphenyl)phenyl]-7-methyl-2,3-dioxo-1,4-dihydroquinoxaline-6-sulfonamide], the concentration for a half-maximal effect (EC50) in assay [1] and in assay [2] was 100 to 1000 nM throughout.

Turning to `Cc1cc2[nH]c(=O)c(=O)[nH]c2cc1S(=O)(=O)Nc1ccc(-c2ccc(C(N)=O)cc2)c(Cl)c1` [Compound 314, 4-[2-chloro-4-[(7-methyl-2,3-dioxo-1,4-dihydroquinoxalin-6-yl)sulfonylamino]phenyl]benzamide], the EC50 in assay [1] and in assay [2] was 100 to 1000 nM in each case.

Take `Cc1cc2[nH]c(=O)c(=O)[nH]c2cc1S(=O)(=O)Nc1ccc(-c2cc(Cl)cc(Cl)c2)c(Cl)c1` [Compound 315, N-[3-chloro-4-(3,5-dichlorophenyl)phenyl]-7-methyl-2,3-dioxo-1,4-dihydroquinoxaline-6-sulfonamide]: the concentration giving a half-maximal response (EC50) in assay [1] lay in the range of 100 to 1000 nM; in assay [2] it was 1000 to 6000 nM.

The values are drawn from patent publication US20240376084A1, “INHIBITORS OF ALPHA-HEMOLYSIN OF STAPHYLOCOCCUS AUREUS” (Helmholtz-Zentrum Fur Infektionsforschung GmbH, priority 2021, published 2024).
